SMILES strings stand for the structures. Active and inactive are the calls of the source. How the calls were made is not given here.

In the assay the target is Sphingosine 1-phosphate receptor 3 (Homo sapiens) (UniProt Q99500). Description: S1P3 receptor antagonists, late-stage follow-up, cell-based, fluorescence, dose response (AID 743434). To be noted: S1P3-expressing cells, fluorescence antagonist assay.
Sphingosine 1-phosphate receptor 3 (Homo sapiens), sequence (Q99500 whole entry, looked up): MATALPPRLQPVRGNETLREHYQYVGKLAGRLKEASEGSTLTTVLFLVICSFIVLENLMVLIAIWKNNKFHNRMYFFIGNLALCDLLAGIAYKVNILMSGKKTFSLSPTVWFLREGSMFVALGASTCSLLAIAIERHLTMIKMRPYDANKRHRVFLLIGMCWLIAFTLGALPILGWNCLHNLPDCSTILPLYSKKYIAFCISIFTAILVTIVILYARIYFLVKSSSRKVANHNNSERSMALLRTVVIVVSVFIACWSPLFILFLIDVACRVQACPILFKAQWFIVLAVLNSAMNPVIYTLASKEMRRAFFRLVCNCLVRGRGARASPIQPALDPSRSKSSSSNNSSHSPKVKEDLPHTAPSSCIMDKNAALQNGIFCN
On to `O=C(NC(c1nc(-c2ccccc2)no1)C1CCOCC1)c1ccc(Cl)c(Cl)c1` (stereo not drawn), for which the IC50 (usually the concentration needed to halve the response being measured) is 2800 nM.
With `O=C(NC(c1ccccc1)c1nc(-c2ccccc2)no1)c1cccc(Cl)n1` (stereo not drawn) the figure was 2800 nM; with `N#Cc1ccc(C(=O)NC(c2ccc(Cl)c(Cl)c2)c2nc(-c3ccccc3)no2)cc1` (stereo not drawn), 320 nM.
As for `O=C(NC(c1ccc(Cl)c(Cl)c1)c1nc(-c2ccccc2)no1)c1ccc(Cl)cc1` (stereo not drawn), the IC50 was 76 nM.
With `O=C(NC(c1ccc(Cl)cc1)c1nc(-c2ccccc2)no1)c1cccc(Cl)c1` (stereo not drawn), the IC50 was 214 nM.
With `O=C(NC(c1ccc(Br)cc1)c1nc(-c2ccccc2)no1)c1ccc(Cl)c(Cl)c1` (stereo not drawn) the figure was 214 nM; with `O=C(NC(c1ccc(Cl)c(Cl)c1)c1nc(-c2ccccc2)no1)c1cccc(Cl)c1` (stereo not drawn), 53 nM; with `O=C(NC(c1ccc(Cl)cc1)c1nc(-c2ccccc2)no1)c1ccc(Cl)c(Br)c1` (stereo not drawn), 390 nM.
With `O=C(NC(c1ccc(Cl)cc1)c1nc(-c2ccccn2)no1)c1cccc(Cl)c1` (stereo not drawn) the figure was 2900 nM.
Regarding `O=C(NC(c1nc(-c2ccccc2)no1)C1CCCCC1)c1ccc(Cl)c(Cl)c1` (stereo not drawn), the 50% inhibitory concentration (IC50) was 3300 nM.
For `Cc1ccc(C(=O)NC(c2ccccc2)c2nc(-c3ccccc3)no2)cc1` (stereo not drawn), the IC50 result is “inactive”.
On to `O=C(NC(Cc1ccccc1)c1nc(-c2ccccc2)no1)c1cccc(Cl)c1` (stereo not drawn), for which the concentration for half-maximal inhibition (IC50) was 5700 nM.
Next, `O=C(c1cccc(Cl)c1)N(CCO)C(c1ccc(Cl)c(Cl)c1)c1nc(-c2ccccc2)no1` (stereo not drawn): “inactive”.
With `COc1ccc(C(=O)NC(c2ccccc2)c2nc(-c3ccccc3)no2)cc1` (stereo not drawn) the entry was “inactive”; with `O=C(NC(c1cccc(Cl)c1)c1nc(-c2ccccc2)no1)c1cc(Cl)cc(Cl)c1` (stereo not drawn), 33 nM; with `O=C(NC(c1ccc(Cl)c(Cl)c1)c1nc(-c2ccccc2)no1)c1ccc(Cl)c(Cl)c1` (stereo not drawn), 66 nM.
Consider `O=C(NC(c1ccccc1)c1nc(-c2ccccc2)no1)c1ccc(Cl)cc1` (stereo not drawn), for which the IC50 was 2400 nM.
`O=C(NC(c1ccc(Cl)cc1)c1nc(-c2cccc(Cl)c2)no1)c1cccc(Cl)c1` (stereo not drawn): the IC50 is 1100 nM.

The record behind these values is PubChem BioAssay AID743434 (The Scripps Research Institute Molecular Screening Center, 2014).
